Laboratory results reported in ChEMBL document CHEMBL1201862, “PubChem BioAssay data set” (2004).
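Five concentrations, 48 hours, 96-well plates. GI50 marks 50% less growth.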 The source made the active and inactive calls. Cut-off read from the data, not from the text of the source: active = GI50 up to about 1.1 µM and inactive = higher. Where a SMILES comes first, the peptide text is derived from it. The star is where a group is joined. Boc = CC(C)(C)OC(=O)*; OBn = c1ccc(CO*)cc1

How the values were obtained:
Assay in all cases: NCI tumour cell line growth inhibition, 48 h
A549 = system: A549
BT-549 = system: BT-549
CAKI-1 = system: CAKI-1
EKVX = system: EKVX
HOP-92 = system: HOP-92
KM12 = system: KM12
MCF7 = system: MCF7
MDA-MB-231 = system: MDA-MB-231
NCI-H23 = system: NCI-H23
NCI-H522 = system: NCI-H522
NCI/ADR-RES = system: NCI/ADR-RES
OVCAR-3 = system: OVCAR-3
PC-3 = system: PC-3
RXF 393 = system: RXF 393
SF-268 = system: SF-268
SF-539 = system: SF-539
SK-MEL-28 = system: SK-MEL-28
HCC 2998 = system: HCC 2998
UO-31 = system: UO-31
HL-60 = system: HL-60

Measured: GI50

O=C(O)Cc1c(O)ccc2ccccc12
inactive: A549 > 100 µM | BT-549 > 100 µM | CAKI-1 > 100 µM | EKVX > 100 µM | HOP-92 > 100 µM | KM12 > 100 µM | MCF7 > 100 µM | MDA-MB-231 > 100 µM | NCI-H23 > 100 µM | NCI-H522 > 100 µM | NCI/ADR-RES > 100 µM | OVCAR-3 > 100 µM | PC-3 > 100 µM | RXF 393 > 100 µM | SF-268 > 100 µM | SF-539 > 100 µM | SK-MEL-28 > 100 µM

Cc1ccc2c(c1)C(=O)N1CCC[C@H]1C=N2
inactive: A549 30.7 µM | BT-549 17.8 µM | CAKI-1 15.6 µM | EKVX 26.4 µM | HCC 2998 19.6 µM | HOP-92 25.5 µM | KM12 15.5 µM | MCF7 11.9 µM | MDA-MB-231 19.2 µM | NCI-H23 16.5 µM | NCI-H522 5.13 µM | NCI/ADR-RES 21.1 µM | OVCAR-3 19.1 µM | PC-3 17.7 µM | RXF 393 4.21 µM | SF-268 31.3 µM | SF-539 18.3 µM | SK-MEL-28 22.7 µM | UO-31 5.37 µM

C[N+]1(CCN=C=NC2CCCCC2)CCOCC1
inactive: A549 > 100 µM | BT-549 > 100 µM | CAKI-1 > 100 µM | EKVX > 100 µM | HL-60 > 100 µM | HOP-92 > 100 µM | KM12 > 100 µM | MCF7 > 100 µM | MDA-MB-231 > 100 µM | NCI-H23 > 100 µM | NCI-H522 > 100 µM | NCI/ADR-RES > 100 µM | OVCAR-3 > 100 µM | PC-3 > 100 µM | RXF 393 > 100 µM | SF-268 > 100 µM | SF-539 > 100 µM | SK-MEL-28 > 100 µM | UO-31 > 100 µM

N#Cc1c(Cl)c2ccccc2n2c1nc1ccccc12
inactive: A549 > 100 µM | BT-549 71 µM | CAKI-1 21.9 µM | EKVX 19.9 µM | HCC 2998 19.6 µM | HL-60 5.33 µM | HOP-92 19.7 µM | KM12 34.1 µM | MCF7 39.9 µM | MDA-MB-231 23.8 µM | NCI-H23 24.2 µM | NCI/ADR-RES 23.3 µM | OVCAR-3 36.5 µM | PC-3 31 µM | RXF 393 22.6 µM | SF-268 27.2 µM | SF-539 19.4 µM | SK-MEL-28 79.3 µM | UO-31 16.1 µM

Cc1ccc(S(=O)(=O)OC2CCN(C)CC2)cc1
inactive: A549 57.8 µM | BT-549 > 100 µM | EKVX > 100 µM | HL-60 18 µM | HOP-92 19.8 µM | MCF7 47.9 µM | MDA-MB-231 > 100 µM | NCI-H23 33.7 µM | NCI-H522 19 µM | NCI/ADR-RES > 100 µM | OVCAR-3 > 100 µM | PC-3 > 100 µM | RXF 393 > 100 µM | SF-268 > 100 µM | SF-539 88.7 µM | SK-MEL-28 > 100 µM

Cc1cc(C)c2c(=O)n(CC(O)CN3CCN(CCOCCO)CC3)sc2n1 (centres undefined)
inactive: A549 32.4 µM | BT-549 16.6 µM | CAKI-1 > 100 µM | EKVX 18.7 µM | HL-60 20.5 µM | HOP-92 19.4 µM | KM12 22 µM | MCF7 18.3 µM | MDA-MB-231 19.1 µM | NCI-H23 15.3 µM | NCI-H522 14.6 µM | NCI/ADR-RES > 100 µM | OVCAR-3 22.4 µM | PC-3 18.7 µM | RXF 393 4.68 µM | SF-268 20.8 µM | SF-539 20 µM | SK-MEL-28 17.2 µM | UO-31 20.7 µM

O=C(Nc1ccccc1)N(CCN(Cc1ccccc1)C(=O)Nc1ccccc1)CCN(Nc1ccccc1)C(=O)Nc1ccccc1
inactive: A549 > 100 µM | BT-549 > 100 µM | CAKI-1 > 100 µM | EKVX > 100 µM | HCC 2998 > 100 µM | HL-60 > 100 µM | HOP-92 > 100 µM | KM12 > 100 µM | MCF7 > 100 µM | MDA-MB-231 > 100 µM | NCI-H23 > 100 µM | NCI-H522 > 100 µM | NCI/ADR-RES > 100 µM | OVCAR-3 > 100 µM | PC-3 > 100 µM | RXF 393 > 100 µM | SF-268 > 100 µM | SK-MEL-28 > 100 µM | UO-31 > 100 µM

O=C(O)CCc1c2ccc(=O)c(O)c-2oc2c(O)c(O)ccc12
inactive: A549 > 100 µM | BT-549 87.5 µM | CAKI-1 > 100 µM | EKVX 28.8 µM | HCC 2998 8.55 µM | HL-60 44.3 µM | HOP-92 > 100 µM | KM12 29.3 µM | MCF7 14.8 µM | MDA-MB-231 20.6 µM | NCI-H23 61.4 µM | NCI-H522 27.4 µM | NCI/ADR-RES > 100 µM | OVCAR-3 91.8 µM | PC-3 > 100 µM | RXF 393 > 100 µM | SF-268 32.4 µM | SK-MEL-28 > 100 µM | UO-31 > 100 µM

CC(C)CC(NC(=O)OC(C)(C)C)C(=O)N1CCCC1C(=O)OCc1ccccc1 (stereo not drawn) (Boc-Leu-Pro-OBn; configuration not given here)
inactive: A549 > 100 µM | BT-549 > 100 µM | CAKI-1 > 100 µM | EKVX > 100 µM | HOP-92 > 100 µM | KM12 > 100 µM | MCF7 67.8 µM | MDA-MB-231 > 100 µM | NCI-H23 > 100 µM | NCI-H522 > 100 µM | NCI/ADR-RES > 100 µM | OVCAR-3 > 100 µM | PC-3 > 100 µM | RXF 393 > 100 µM | SF-268 > 100 µM | SF-539 > 100 µM | SK-MEL-28 76.7 µM | UO-31 75 µM

Cc1ccc(C(=O)N/N=C(\N=N\c2ccc(C(=O)O)cc2)c2ccc(N(CCC#N)CCC#N)cc2C)cc1
inactive: A549 > 100 µM | BT-549 83 µM | CAKI-1 > 100 µM | EKVX > 100 µM | HCC 2998 > 100 µM | HL-60 79.3 µM | HOP-92 > 100 µM | KM12 > 100 µM | MCF7 > 100 µM | MDA-MB-231 > 100 µM | NCI-H23 > 100 µM | NCI/ADR-RES > 100 µM | OVCAR-3 62.8 µM | PC-3 > 100 µM | RXF 393 32.1 µM | SF-539 > 100 µM | SK-MEL-28 > 100 µM | UO-31 > 100 µM

O=C1Nc2ccccc2[C@]12C[C@H]2c1ccccn1
inactive: A549 > 100 µM | BT-549 > 100 µM | CAKI-1 > 100 µM | EKVX > 100 µM | HCC 2998 > 100 µM | HOP-92 > 100 µM | KM12 > 100 µM | MCF7 > 100 µM | MDA-MB-231 > 100 µM | NCI-H23 > 100 µM | NCI-H522 > 100 µM | NCI/ADR-RES > 100 µM | OVCAR-3 > 100 µM | PC-3 > 100 µM | RXF 393 > 100 µM | SF-268 > 100 µM | SF-539 > 100 µM | SK-MEL-28 > 100 µM | UO-31 > 100 µM

Cn1c(=O)c2c(nc(NCCCCl)n2CC(=O)O)n(C)c1=O
inactive: A549 > 100 µM | BT-549 > 100 µM | CAKI-1 > 100 µM | EKVX > 100 µM | HCC 2998 > 100 µM | HL-60 > 100 µM | HOP-92 > 100 µM | KM12 > 100 µM | MCF7 > 100 µM | MDA-MB-231 > 100 µM | NCI-H23 > 100 µM | NCI-H522 > 100 µM | NCI/ADR-RES > 100 µM | OVCAR-3 > 100 µM | PC-3 > 100 µM | RXF 393 > 100 µM | SF-268 > 100 µM | SK-MEL-28 > 100 µM | UO-31 > 100 µM

Cc1cccc(/C=N/NC(=S)NCc2ccccn2)n1
inactive: A549 27.1 µM | BT-549 58.2 µM | CAKI-1 26.4 µM | EKVX 37.2 µM | HCC 2998 41.7 µM | HL-60 23.4 µM | HOP-92 25.9 µM | KM12 40.3 µM | MCF7 31.8 µM | MDA-MB-231 33.5 µM | NCI-H23 40.8 µM | NCI-H522 34.3 µM | NCI/ADR-RES 25.2 µM | OVCAR-3 74.5 µM | PC-3 18.5 µM | SF-268 20 µM | SF-539 23.4 µM | SK-MEL-28 45.8 µM | UO-31 14.8 µM

COC(=O)C(Cc1ccccc1)NC(=O)CSc1nnc(COc2ccc(Cl)cc2)n1-c1ccccc1 (centres undefined)
inactive: A549 39.4 µM | BT-549 27.4 µM | HCC 2998 5.61 µM | HL-60 20.6 µM | HOP-92 26.4 µM | KM12 37.7 µM | MCF7 23.4 µM | MDA-MB-231 18.6 µM | NCI-H23 22.3 µM | NCI/ADR-RES 21.8 µM | PC-3 22.8 µM | RXF 393 19.1 µM | SF-268 25.7 µM | SF-539 22.4 µM | SK-MEL-28 27.2 µM | UO-31 1.83 µM

CN1C(=O)N/C(=C\c2ccc(S(=O)(=O)N/N=C\C(O)C(O)C(O)CO)cc2)C1=O (centres undefined)
inactive: A549 > 100 µM | BT-549 > 100 µM | CAKI-1 > 100 µM | EKVX > 100 µM | HCC 2998 > 100 µM | HL-60 > 100 µM | HOP-92 > 100 µM | KM12 > 100 µM | MCF7 > 100 µM | MDA-MB-231 > 100 µM | NCI-H23 > 100 µM | NCI/ADR-RES > 100 µM | OVCAR-3 > 100 µM | PC-3 > 100 µM | RXF 393 > 100 µM | SF-268 > 100 µM | SK-MEL-28 > 100 µM | UO-31 > 100 µM
